Results: patent US9695133B2, “Quinazolinone-based oncogenic-RAS-selective lethal compounds and their use” (THE TRUSTEES OF COLUMBIA UNIVERSITY IN THE CITY OF NEW YORK, priority 2012, dated 2017)

Tests used:
GFP-ALOX5 = GFP-ALOX5 translocation in BJ-derived cell lines; type: cell-based, human
Procedure: A cDNA of ALOX5 (GeneBank ID: BC130332.1) was cloned into a pBabe-puro vector to express GFP fused ALOX5 (N-terminal GFP fusion) in cells. The plasmid was transfected into PLAT-GP cells (Cell Biolabs Inc., cat # RV-103, San Diego, Calif.) along with a pVSV-G helper plasmid to produce retrovirus harboring the expression plasmid. 0.2 million target cells (BJeH, BJeHLT, BJeLR or HT-1080 cells) were seeded in 10 cm tissue culture dishes and incubated in the tissue culture incubator for 1 day. A frozen stock of retrovirus solution was thawed at 37° C. for 2 minutes, and polybrene (Sigma, cat. # H9268) was added at a final concentration of 8 μg/mL. Culture medium was replaced with virus/polybrene mix and the culture dish was incubated for two hours with rocking every 30 minutes. After 2 hours, 10 mL of growth media was added to culture dish, and the culture was incubated further for 2 days. Cell lines stably expressing GFP-ALOX5 protein were selected using 1.5 μg/mL puromycin and used for the GFP-ALOX5 translocation assay.
ALOX5 is one of the six human ALOX genes and plays a critical role in leukotriene synthesis. In the basal state, the ALOX5 protein remains in the nucleus; however, upon activation, it translocates to the nuclear membrane (Chen et al., 2001). […] Second, calcium chelators were not effective in suppressing erastin-induced cell death (Wolpaw et al., 2011).

ALOX15B and ALOXE3 = assay: ALOX15B / ALOXE3 siRNA knockdown and lethal compound sensitivity in HT-1080 cells; type: cell-based, human
Procedure: HT-1080 cells were transfected with siRNA pools targeting either ALOX15B or ALOXE3, and then, treated with the indicated RSL compounds in 2-fold dilution series. 24 hours after compound treatment, alamar blue was added to the culture at a final concentration of 10% in growth media to determine cell viability. The percent growth inhibition was calculated from the fluorescence intensity of each well in 384-well assay plates. Data points represent mean of duplicates.
Small interfering RNA (siRNA) pools targeting ALOX15B and ALOXE3 were obtained from Dharmacon Technologies (Lafayette, Colo.). On the day of reverse-transfection, a cocktail of 1 mL of Opti-MEM (Invitrogen Corp., Carlsbad, Calif.), 6 μL of Lipofectamine RNAiMAX (Invitrogen), and 5 μL of 10 μM siRNA were prepared and transferred to each well of a 6-well plate. The 6-well plate was put in the tissue culture incubator for 20 minutes to allow the formation of transfection mixture. While the complex was forming, HT-1080 cells were trypsinized and the cell number was determined using ViCell (Trypan Blue). 200,000 cells were prepared in 1 mL of growth media with 2× serum, and then, the cell suspension was transferred to each well containing 1 mL of the transfection mix. The 6-well plate was returned to the incubator and the culture grown for 2 days. […]

BJ-derived cell lines = assay: GSH depletion assay in BJ-derived cell lines; type: cell-based, human; settings: BJeLR cells, lethal RSL3 dose
Procedure: Bar graph: mean+s.d.; n=3. *, P<0.05.
2 million cells were seeded on 10 cm dishes. The next day, cells were treated with compounds to induce GSH depletion followed by harvesting to determine cell number. Two million live cells from each sample were transferred to new tubes, and centrifuged at 1,000 rpm at 4° C. for 5 minutes. The cell pellet was resuspended in 1 mL of PB buffer (10 mM sodium phosphate buffer, 1 mM EDTA, pH 7) and sonicated using 60 Joule energy. The lysate was centrifuged at 13,200 rpm at 4° C. for 10 minutes, and then the cleared lysate was used to determine the amount of GSH in the sample. The QuantiChrome glutathione assay kit (BioAssay Systems, cat # DIGT-250) was used and the product instructions were followed to determine GSH level.

BJeLR cells = assay: Lipid peroxide detection using BODIPY-C11 in BJ-derived cells; type: cell-based, human
[1] = tested on: BJeH, BJeHLT, BJeLR and DRD cells; type: cell-based; settings: 0.4 μM RSL3, BJeLR vs BJeHLT cells

COC(=O)c1ccc([C@@H]2c3[nH]c4ccccc4c3C[C@@H](C(=O)OC)N2C(=O)CCl)cc1 [RSL3]
GFP-ALOX5 translocation to the nuclear membrane (GFP-ALOX5): caused GFP-ALOX5 translocation to the nuclear membrane | effect of ALOX15B knockdown on compound-induced cell death (ALOX15B and ALOXE3): sensitized cells to RSL3-induced cell death | effect of ALOXE3 knockdown on compound-induced cell death (ALOX15B and ALOXE3): suppressed | cellular GSH level (BJ-derived cell lines): remained unaffected | lipid peroxide generation (BODIPY-C11 fluorescence) (BJeLR cells): generation of lipid peroxides | selective lethality [1]: exhibited selective lethality in BJeLR cells
